The source of these data is patent US6194451A, “Matrix metalloproteinase inhibitors” (Pharmacia & Upjohn S.p.A., priority 1997, dated 2001).

The structures appear in SMILES notation. Values after ≈ are worked out from the molar mass of the structure shown. Where only a bound is given, the exact number is not on record here.

The target in series [1] is T1, MMP-1 (human interstitial collagenase) (Homo sapiens, UniProt P03956).
T1 construct: truncated recombinant enzyme encompassing residues 101-269
T1 sequence (P03956 101-269): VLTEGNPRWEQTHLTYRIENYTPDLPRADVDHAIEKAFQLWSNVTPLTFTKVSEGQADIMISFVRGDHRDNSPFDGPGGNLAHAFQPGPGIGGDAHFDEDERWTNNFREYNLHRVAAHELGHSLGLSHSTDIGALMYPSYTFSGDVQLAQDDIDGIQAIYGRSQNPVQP
The series is described as follows: Biochemical Assay (Protocol A): inhibition of human collagenase, fluorimetric peptide substrate. The following applies: MMP-1, pH 7.4, 37° C. From the text:
(§1) As mentioned above, although low molecular weight MMP inhibitors, including hydroxamates of general formula (A), are already known, there is a strong need for better and diversified molecules for their use in medicine, that is in particular in the control or prevention of degenerative joint diseases such as rheumatoid arthritis and osteoarthritis, or in the management of multiple sclerosis, or in the treatment of invasive tumors. […] For example, the following protocol was used to assess the biochemical activity of compounds of formula (I) against MMP-1, MMP-2, and MMP-3 (respectively, human interstitial collagenase, gelatinase A, and stromelysin-1).
(§2) Human gelatinase-A (MMP-2) was obtained as pro-enzyme (72 kDa) and was activated with 1 mM 4-aminophenylmercuric acetate for 30 min at 37° C. immediately prior to use. Human stromelysin-1 (MMP-3) was obtained as a recombinant pro-enzyme isolated either from E. coli or from baculovirus infected Sf9 insect cells and activated either by heat (1 h, 55° C.) or by 5 mg/l trypsin (30 min, 37° C.) before addition of soybean trypsin inhibitor, finally removed by centrifugation.
(§3) All enzyme assays to determine values of the enzyme-inhibitor dissociation constants were performed using the peptide substrate (7-methoxycoumarin-4-yl)Acetyl-Pro-Leu-Gly-Leu-(3-[2,4-dinitrophenyl]-L-2,3-diaminopropionyl)-Ala-Arg-NH2 (Mca-Pro-Leu-Gly-Leu-Dpa-Ala-Arg--NH2) (C. G. Knight et al., FEBS Lett. 296:263-266, 1992). The enzymes cleave at the Gly-Leu bond removing the internally quenching Dpa group. The release of the highly fluorescent peptide Mca-Pro-Leu was followed fluorimetrically setting the excitation wavelength at 326 nm (bandwidth 5 nm) and the emission at 392 nm (bandwidth 20 nm).
(§4) Continuous fluorescence assay was carried out using a Perkin Elmer LS-50 Fluorescence Spectrophotometer fitted with a thermostatted four position stirring cell changer. Inhibitors were dissolved in the assay buffer ([…] Tris/HCl pH 7.4 containing 0.15 M NaCl, 10 mM CaCl2, 0.01 mM ZnCl2 and 0.05% Brij 35) thermostatted at 37° C. The reaction was started by the addition of substrate ([…]), followed by the addition of the enzyme (e.g. 1.0 nM collagenase, 0.04 nM gelatinase, or 3.0 nM stromelysin) and the increase in fluorescence was monitored over 30 min. The run was repeated at different concentrations of inhibitors in the range 0.1-10000 nM and data at inhibitor concentration in the region if their enzyme-inhibitor dissociation constants were used for calculation.
(§5) Substrate consumption was within 5% of the initial concentration and data outside this range were discarded. The Michaelis constants (Km) for the enzyme-substrate complexes is […] or greater (C. G. Knight et al., reference above), so that the factor (1+S/Km) can be approximated to unity without appreciable error.

Series [2] deals with T2, MMP-2 (human gelatinase A) (Homo sapiens, UniProt P08253).
T2 sequence (P08253 110-660): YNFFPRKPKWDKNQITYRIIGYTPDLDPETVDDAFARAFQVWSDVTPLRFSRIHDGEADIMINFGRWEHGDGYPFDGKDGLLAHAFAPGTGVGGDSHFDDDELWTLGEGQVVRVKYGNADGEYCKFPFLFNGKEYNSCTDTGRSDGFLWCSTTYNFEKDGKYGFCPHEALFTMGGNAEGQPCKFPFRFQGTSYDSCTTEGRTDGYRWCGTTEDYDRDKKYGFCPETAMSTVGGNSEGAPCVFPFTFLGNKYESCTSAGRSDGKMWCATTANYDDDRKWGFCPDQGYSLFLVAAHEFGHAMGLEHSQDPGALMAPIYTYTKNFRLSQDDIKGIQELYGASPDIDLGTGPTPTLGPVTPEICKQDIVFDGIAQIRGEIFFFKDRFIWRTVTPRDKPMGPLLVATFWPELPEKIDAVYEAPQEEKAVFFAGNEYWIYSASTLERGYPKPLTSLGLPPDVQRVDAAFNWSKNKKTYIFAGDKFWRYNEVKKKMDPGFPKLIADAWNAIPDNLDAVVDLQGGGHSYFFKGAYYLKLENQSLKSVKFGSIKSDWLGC
The series is described as follows: Biochemical Assay (Protocol A): inhibition of human gelatinase A, fluorimetric peptide substrate. As to conditions: MMP-2, pH 7.4, 37° C.
Excerpt: as §1, §2, §3, §4, §5

Series [3] addresses T3, MMP-3 (human stromelysin-1) (Homo sapiens, UniProt P08254).
T3 construct: host or cells: E. coli or baculovirus-infected Sf9 insect cells
The series is described as follows: Biochemical Assay (Protocol A): inhibition of human stromelysin-1, fluorimetric peptide substrate. The following applies: MMP-3, pH 7.4, 37° C.
Excerpt: as §1, §2, §3, §4, §5

Series [4] relates to release of TNF from THP-1 cells. The series is described as follows: Cellular Assay (Protocol B): inhibition of release of TNF from LPS-stimulated THP-1 cells. It counts as cell-based. The following applies: Homo sapiens, LPS 5 microg/mL, 4 h. Here is the method:
For example, the following cell-based assay was used to assess such activity:
THP-1 cells, cultured in RPMI 1640 supplemented with 10% FCS, were distributed into 24-well plates, 1 mL of a suspension of 1×10^6 cells/mL in each well. Compounds to be tested, dissolved in DMSO and diluted with the culture medium (1% final DMSO concentration) were added. Plates were incubated for 30 min at 37° C. in 5% CO2, and lipopolisaccharide (LPS 0111:B4, 5 microg/mL) was added as a stimulant. After a further 4 h incubation, cells were harvested, centrifuged (2,000 rpm, 7 min), and the surnatant was collected and freezed (-20° C.) until analysis. Analysis was run by classical ELISA methodology (monoclonal anti-TNF-a antibody, rabbit capture policlonal antibody, and peroxidated anti-rabbit antibody).

A short description of the next series: Aqueous solubility. It counts as physicochemical. The following applies: water, pH 7.0, 25° C. Here is the method: Further, several compounds of formula (I), in particular when R2 is hydroxy, and when R1 is hydroxymethyl, have enhanced water solubility as compared to the vast majority of MMP inhibitors of the prior art. An aqueous solubility threshold, which may vary widely but can be roughly set in the range of 1-10 mg/mL, makes systemic administration easy, and more than often is essential to good oral bioavailability.

T3 sequence (P08254 100-477): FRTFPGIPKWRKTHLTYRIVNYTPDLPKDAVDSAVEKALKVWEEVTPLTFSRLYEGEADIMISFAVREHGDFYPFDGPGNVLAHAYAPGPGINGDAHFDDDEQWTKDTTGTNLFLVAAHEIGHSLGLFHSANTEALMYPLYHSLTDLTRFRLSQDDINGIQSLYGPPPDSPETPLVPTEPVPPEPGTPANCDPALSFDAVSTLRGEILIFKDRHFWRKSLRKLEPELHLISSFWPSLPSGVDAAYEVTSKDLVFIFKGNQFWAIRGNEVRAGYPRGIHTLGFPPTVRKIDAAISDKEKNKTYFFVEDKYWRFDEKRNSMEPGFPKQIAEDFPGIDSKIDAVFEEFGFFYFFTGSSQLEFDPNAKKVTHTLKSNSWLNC

Regarding `CNC(=O)[C@H](Cc1ccccc1)NC(=O)[C@H](CC(C)C)[C@](O)(COC1CCCCO1)C(=O)NO` (stereo partly drawn) [Example 5, [(2R,3S)-3-Hydroxy-4-hydroxyamino-2-isobutyl-3-(tetrahydro-pyran-2-yloxymethyl)succinyl]-L-phenylalanine-N-methylamide], the Ki (as a rule, a measure of affinity in units of concentration, obtained from inhibition or displacement) stood at 2.7 nM in series [1], 0.62 nM in series [2] and 15 nM in series [3]. Besides, in series [4], the midpoint of inhibition, the IC50, lay at 1490 nM.

`CC(C)C[C@@H](C(=O)N1CCCCC1)[C@](O)(CO)C(=O)NO` [Example 24, 1-[(2R,3S)-3-Hydroxy-4-hydroxyamino-3-hydroxymethyl-2-isobutyl-succinyl]piperidine]: the solubility – broadly, the dissolved amount per volume that the medium holds – in “Aqueous solubility” was over 6000 µg/mL.

As to `CC(=O)OC[C@](O)(C(=O)NO)[C@@H](CC(C)C)C(=O)N1CCCCC1` [Example 23, 1-[(2R,3S)-3-Acetoxymethyl-3-hydroxy-4-hydroxyamino-2-isobutylsuccinyl]piperidine], the concentration in solution in the series “Aqueous solubility” (solubility) came to 5000 µg/mL (≈ 14.5 mM).

Regarding `CC(=O)OC[C@](O)(C(=O)NO)[C@@H](CC(C)C)C(=O)N[C@H](C(=O)Nc1ccncc1)C(C)(C)C` [Example 11, [(2R,3S)-3-Acetoxymethyl-3-hydroxy-4-hydroxyamino-2-isobutyl-succinyl]-L-tert-leucine-N-(4-pyridyl)amide], the inhibition constant (Ki) in series [1] stood at 7.3 nM; in series [2], 4.7 nM; in series [3], 4.9 nM. The same molecule registered a solubility in “Aqueous solubility” of 3400 µg/mL (≈ 7.29 mM).

Take `CNC(=O)[C@@H](NC(=O)[C@H](CC(C)C)[C@@](COC1CCCCO1)(OC1CCCCO1)C(=O)NO)C(C)(C)C` (stereo partly drawn) [Example 8, [(2R,3S)-4-Hydroxyamino-2-isobutyl-3-(2-tetrahydropyranyl)oxy-3-(2-tetrahydropyranyl)oxymethylsuccinyl]-L-tert-leucine-N-methylamide]: the Ki worked out at 45 nM in series [1], 40 nM in series [2] and 1100 nM in series [3]. The molecule further yielded a solubility in the series “Aqueous solubility” of 10000 µg/mL (≈ 18.9 mM).

For `CNC(=O)[C@H](Cc1ccccc1)NC(=O)[C@H](CC(C)C)C1(C(=O)NO)CC1` [Example 20, [2R-(1-Hydroxyaminocarbonyl)cyclopropyl-4-methylpentanoyl]-L-phenylalanine-N-methylamide], the values for the Ki in series [1], in series [2] and in series [3] were 25 nM, 19 nM and 880 nM, respectively. For the same molecule, the solubility in “Aqueous solubility” was found to be 5800 µg/mL (≈ 15.4 mM).

Consider `CNC(=O)[C@@H](NC(=O)[C@H](CC(C)C)[C@](O)(COC1CCCCO1)C(=O)NO)C(C)(C)C` (stereo partly drawn) [Example 2, [(2R,3S)-3-Hydroxy-4-hydroxyamino-2-isobutyl-3-(tetrahydro-pyran-2-yloxymethyl)succinyl]-L-tert-leucine-N-methylamide], for which, in series [4], the IC50 (commonly the point on the concentration scale where inhibition reaches its midpoint) was 5200 nM.

As for `CC(C)C[C@@H](C(=O)N[C@H](C(=O)Nc1ccncc1)C(C)(C)C)[C@](O)(CO)C(=O)NO` [Example 12, [(2R,3S)-3-Hydroxy-4-hydroxyamino-3-hydroxymethyl-2-isobutyl-succinyl]-L-tert-leucine-N-(4-pyridyl)amide], the results for the Ki in series [1], in series [2] and in series [3] were 6.8 nM, 9.5 nM and 10 nM, respectively. Moreover, the solubility in the series “Aqueous solubility” was over 10000 µg/mL.

Turning to `CNC(=O)[C@H](Cc1ccccc1)NC(=O)[C@H](CC(C)C)[C@](O)(CO)C(=O)NO` [Example 7, [(2R,3S)-3-Hydroxy-4-hydroxyamino-3-hydroxymethyl-2-isobutyl-succinyl]-L-phenylalanine-N-methylamide], the Ki in series [1] was 1.5 nM; in series [2], 3.1 nM; in series [3], 32 nM. In series [4] (at 100 microM), testing at 100 µM gave an inhibition of 90%. In “Aqueous solubility”, this molecule showed a solubility of 6000 µg/mL (≈ 15.2 mM).

`CNC(=O)[C@@H](NC(=O)[C@H](CC(C)C)[C@](O)(COC(=O)C(C)(C)C)C(=O)NO)C(C)(C)C` [Example 13, [(2R,3S)-3-Hydroxy-4-hydroxyamino-2-isobutyl-3-(tri-methylacetoxy)methyl-succinyl]-L-tert-leucine-N-methylamide]: the Ki in series [1] is 3.4 nM; in series [2], 6.5 nM; in series [3] it was 71 nM. Moreover, the concentration in solution in “Aqueous solubility” (solubility) came to 1300 µg/mL (≈ 2.92 mM).

Turning to `CNC(=O)[C@@H](NC(=O)[C@H](CC(C)C)[C@](O)(COC(C)=O)C(=O)NO)C(C)(C)C` [Example 9, [(2R,3S)-3-Acetoxymethyl-3-hydroxy-4-hydroxyamino-2-isobutyl-succinyl]-L-tert-leucine-N-methylamide], the Ki in series [1] was 2.2 nM; in series [2], 1.7 nM; in series [3], 110 nM. This molecule displayed a solubility in the series “Aqueous solubility” of over 9000 µg/mL.

In the series “Aqueous solubility”, `CC(C)C[C@@H](C(=O)N1CCOCC1)[C@](O)(COC(=O)C(C)(C)C)C(=O)NO` [Example 25, 1-[(2R,3S)-3-Hydroxy-4-hydroxyamino-2-isobutyl-3-(trimethyl-acetoxy)methylsuccinyl]morpholine] gave a solubility of over 8000 µg/mL.

In the series “Aqueous solubility”, `CC(C)C[C@@H](C(=O)N1CCOCC1)[C@](O)(COC(=O)c1ccccc1)C(=O)NO` [Example 22, 1-[(2R,3S)-3-Benzoyoloxymethyl-3-hydroxy-4-hydroxyamino-2-isobutylsuccinyl]morpholine] registered a solubility of 1900 µg/mL (≈ 4.65 mM).

Regarding `CNC(=O)[C@H](Cc1ccccc1)NC(=O)[C@H](CC(C)C)[C@@](O)(COC1CCCCO1)C(=O)NO` (stereo partly drawn) [Example 6, [(2R,3R)-3-Hydroxy-4-hydroxyamino-2-isobutyl-3-(tetrahydro-pyran-2-yloxymethyl)succinyl]-L-phenylalanine-N-methylamide], the inhibition constant Ki is 67 nM in series [1], 23 nM in series [2] and 430 nM in series [3]. Besides, half-maximal inhibition in series [4] (IC50) required 65400 nM.
